Results as given in the NIST ThermoML archive (doi:10.1021/je700406p).
Numbers after ± are expanded uncertainties.

Experiment: wn = mass fraction of the nth substance listed
Conditions: Liquid, Vibrating tube method

SMILES: CC(C)(N)CO [2-amino-2-methylpropan-1-ol] + O
- mass density (333.05 K, 14990 kPa, w1 = 0.4002): 976.2 ± 0.9 kg/m3
- mass density (333.05 K, 15984 kPa, w1 = 0.4002): 976.6 ± 0.9 kg/m3
- mass density (333.05 K, 16990 kPa, w1 = 0.4002): 977 ± 0.9 kg/m3
- mass density (333.05 K, 18003 kPa, w1 = 0.4002): 977.4 ± 0.9 kg/m3
- mass density (333.05 K, 18986 kPa, w1 = 0.4002): 977.8 ± 0.9 kg/m3
- mass density (333.05 K, 19988 kPa, w1 = 0.4002): 978.2 ± 0.9 kg/m3
- mass density (333.05 K, 21502 kPa, w1 = 0.4002): 978.8 ± 0.9 kg/m3
- mass density (342.91 K, 1020 kPa, w1 = 0.2821): 969 ± 0.6 kg/m3
- mass density (342.91 K, 2011 kPa, w1 = 0.2821): 969.5 ± 0.6 kg/m3
- mass density (342.91 K, 3009 kPa, w1 = 0.2821): 969.9 ± 0.6 kg/m3
- mass density (342.91 K, 4010 kPa, w1 = 0.2821): 970.3 ± 0.6 kg/m3
- mass density (342.91 K, 4994 kPa, w1 = 0.2821): 970.8 ± 0.6 kg/m3
- mass density (342.91 K, 5994 kPa, w1 = 0.2821): 971.2 ± 0.6 kg/m3
- mass density (342.91 K, 7035 kPa, w1 = 0.2821): 971.6 ± 0.6 kg/m3
- mass density (342.91 K, 7995 kPa, w1 = 0.2821): 972 ± 0.6 kg/m3
- mass density (342.91 K, 8990 kPa, w1 = 0.2821): 972.4 ± 0.6 kg/m3
- mass density (342.91 K, 9998 kPa, w1 = 0.2821): 972.9 ± 0.6 kg/m3
- mass density (342.91 K, 10992 kPa, w1 = 0.2821): 973.3 ± 0.6 kg/m3
- mass density (342.91 K, 11994 kPa, w1 = 0.2821): 973.7 ± 0.6 kg/m3
- mass density (342.91 K, 12992 kPa, w1 = 0.2821): 974.1 ± 0.6 kg/m3
- mass density (342.91 K, 13990 kPa, w1 = 0.2821): 974.5 ± 0.6 kg/m3
- mass density (342.91 K, 14992 kPa, w1 = 0.2821): 974.9 ± 0.6 kg/m3
- mass density (342.91 K, 15993 kPa, w1 = 0.2821): 975.4 ± 0.6 kg/m3
- mass density (342.91 K, 16987 kPa, w1 = 0.2821): 975.8 ± 0.6 kg/m3
- mass density (342.91 K, 17985 kPa, w1 = 0.2821): 976.2 ± 0.6 kg/m3
- mass density (342.91 K, 18987 kPa, w1 = 0.2821): 976.6 ± 0.6 kg/m3
- mass density (342.91 K, 19984 kPa, w1 = 0.2821): 977 ± 0.6 kg/m3
- mass density (342.91 K, 20986 kPa, w1 = 0.2821): 977.4 ± 0.6 kg/m3
- mass density (342.92 K, 509 kPa, w1 = 0.1997): 971.6 ± 0.5 kg/m3
- mass density (342.92 K, 1001 kPa, w1 = 0.1997): 971.8 ± 0.5 kg/m3
- mass density (342.92 K, 1008 kPa, w1 = 0.4976): 953.4 ± 1.2 kg/m3
- mass density (342.92 K, 2000 kPa, w1 = 0.1997): 972.2 ± 0.5 kg/m3
- mass density (342.92 K, 2004 kPa, w1 = 0.4976): 953.8 ± 1.2 kg/m3
- mass density (342.92 K, 3000 kPa, w1 = 0.1997): 972.7 ± 0.5 kg/m3
- mass density (342.92 K, 3006 kPa, w1 = 0.4976): 954.3 ± 1.2 kg/m3
- mass density (342.92 K, 4000 kPa, w1 = 0.1997): 973.1 ± 0.5 kg/m3
- mass density (342.92 K, 4000 kPa, w1 = 0.4976): 954.8 ± 1.2 kg/m3
- mass density (342.92 K, 4997 kPa, w1 = 0.4976): 955.3 ± 1.2 kg/m3
- mass density (342.92 K, 5000 kPa, w1 = 0.1997): 973.6 ± 0.5 kg/m3
- mass density (342.92 K, 5996 kPa, w1 = 0.4976): 955.7 ± 1.2 kg/m3
- mass density (342.92 K, 6000 kPa, w1 = 0.1997): 974 ± 0.5 kg/m3
- mass density (342.92 K, 6996 kPa, w1 = 0.4976): 956.2 ± 1.2 kg/m3
- mass density (342.92 K, 7001 kPa, w1 = 0.1997): 974.4 ± 0.5 kg/m3
- mass density (342.92 K, 7993 kPa, w1 = 0.4976): 956.7 ± 1.2 kg/m3
- mass density (342.92 K, 8000 kPa, w1 = 0.1997): 974.8 ± 0.5 kg/m3
- mass density (342.92 K, 8988 kPa, w1 = 0.4976): 957.2 ± 1.2 kg/m3
- mass density (342.92 K, 9009 kPa, w1 = 0.1997): 975.2 ± 0.5 kg/m3
- mass density (342.92 K, 9983 kPa, w1 = 0.4976): 957.6 ± 1.2 kg/m3
- mass density (342.92 K, 10002 kPa, w1 = 0.1997): 975.6 ± 0.5 kg/m3
- mass density (342.92 K, 10990 kPa, w1 = 0.4976): 958.1 ± 1.2 kg/m3
- mass density (342.92 K, 11001 kPa, w1 = 0.1997): 976 ± 0.5 kg/m3
- mass density (342.92 K, 12000 kPa, w1 = 0.1997): 976.5 ± 0.5 kg/m3
- mass density (342.92 K, 12003 kPa, w1 = 0.4976): 958.5 ± 1.3 kg/m3
- mass density (342.92 K, 12992 kPa, w1 = 0.4976): 958.9 ± 1.3 kg/m3
- mass density (342.92 K, 13000 kPa, w1 = 0.1997): 976.9 ± 0.5 kg/m3
- mass density (342.92 K, 13996 kPa, w1 = 0.4976): 959.4 ± 1.3 kg/m3
- mass density (342.92 K, 14000 kPa, w1 = 0.1997): 977.3 ± 0.5 kg/m3
- mass density (342.92 K, 14988 kPa, w1 = 0.4976): 959.9 ± 1.3 kg/m3
- mass density (342.92 K, 15002 kPa, w1 = 0.1997): 977.7 ± 0.5 kg/m3
- mass density (342.92 K, 15995 kPa, w1 = 0.4976): 960.3 ± 1.3 kg/m3
- mass density (342.92 K, 16002 kPa, w1 = 0.1997): 978.2 ± 0.5 kg/m3
- mass density (342.92 K, 16984 kPa, w1 = 0.4976): 960.8 ± 1.3 kg/m3
- mass density (342.92 K, 17001 kPa, w1 = 0.1997): 978.6 ± 0.5 kg/m3
- mass density (342.92 K, 17995 kPa, w1 = 0.4976): 961.2 ± 1.3 kg/m3
